Assay results as given in the NIST ThermoML archive (doi:10.1021/je049609w).

How the values were obtained:
[1] = xn = mol fraction of the nth substance listed; conditions: 101 kPa, Liquid
[2] = refractive index (Na D-line) (dimensionless); xn = mol fraction of the nth substance listed; conditions: 101 kPa, Liquid

OCCCl [1-chloro-2-hydroxyethane] + C1COCCO1
Conditions	mass density, 298.15 K [kg/m3]	mass density, 303.15 K [kg/m3]	mass density, 308.15 K [kg/m3]	refractive index, 298.15 K	refractive index, 303.15 K	refractive index, 308.15 K	speed of sound, 298.15 K [m/s]	viscosity, 298.15 K [mPa·s]	viscosity, 303.15 K [mPa·s]	viscosity, 308.15 K [mPa·s]
[1], x2 = 0	1200.9	1192.5	1187.1	–	–	–	1358	3.104	2.669	2.347
[1], x2 = 0.1024	1177.7	1171.1	1165.1	–	–	–	1357	2.755	2.457	2.16
[1], x2 = 0.2001	1157	1151.1	1145.2	–	–	–	1356	2.431	2.17	1.909
[1], x2 = 0.3035	1136.7	1131.1	1125.5	–	–	–	1354	2.088	1.877	1.666
[1], x2 = 0.4041	1118.2	1112.7	1107.2	–	–	–	1353	1.858	1.682	1.505
[1], x2 = 0.5047	1100.8	1095.4	1090	–	–	–	1352	1.649	1.496	1.344
[1], x2 = 0.6031	1084.8	1079.4	1073.9	–	–	–	1350	1.505	1.376	1.248
[1], x2 = 0.7015	1069.5	1064.1	1058.7	–	–	–	1349	1.377	1.265	1.152
[1], x2 = 0.8009	1054.9	1049.5	1044.1	–	–	–	1347	1.304	1.199	1.095
[1], x2 = 0.9003	1041.6	1030.9	1030.2	–	–	–	1346	1.233	1.136	1.038
[2], x2 = 0	–	–	–	1.4411	1.438	1.4326	–	–	–	–
[2], x2 = 0.1024	–	–	–	1.4389	1.4356	1.4324	–	–	–	–
[2], x2 = 0.2001	–	–	–	1.4363	1.4337	1.431	–	–	–	–
[2], x2 = 0.3035	–	–	–	1.4337	1.4314	1.4292	–	–	–	–
[2], x2 = 0.4041	–	–	–	1.4314	1.4291	1.4268	–	–	–	–
[2], x2 = 0.5047	–	–	–	1.429	1.4269	1.4247	–	–	–	–
[2], x2 = 0.6031	–	–	–	1.4273	1.4249	1.4225	–	–	–	–
[2], x2 = 0.7015	–	–	–	1.4256	1.4231	1.4205	–	–	–	–
[2], x2 = 0.8009	–	–	–	1.4235	1.4211	1.4187	–	–	–	–
[2], x2 = 0.9003	–	–	–	1.4214	1.4191	1.4168	–	–	–	–
